We go through one sequence from article PMC5295395, “Inhibition of PlexA1-mediated brain tumor growth and tumor-associated angiogenesis using a transmembrane domain targeting peptide” (Oncotarget, 2016).

The test system of one assay is HMEC cells. In words: 3D migration assay with HMEC spheroids in plasma clot. The assay is classed as cell-based, human. The note with it: 3D plasma clot, MTP-PlexA1 10^−7 M, VEGF 100 ng/ml.
In assay [1] the test system is U118MG-Luc glioma tumors in nude mice. In words: heterotopic (subcutaneous) U118MG-Luc xenograft, tumor growth. Format: in vivo, human cells in mouse. On the procedure: To address the biological consequences of MTP-PlexA1-mediated inhibition of PlexA1 we used the U118MG-Luc glioma cell line genetically engineered to express the luciferase reporter gene. […] Cells were then grafted subcutaneously and tumor growth was monitored every 5 days for a total period of 20 days. […] The quantitative analysis of the cumulated luminescent signal acquired all along the protocol confirmed the strong reduction of tumor development translating into a marked 75% reduction of the averaged luminescent signal at the end point (Figure 6C). […] However, responses were strong for 8 out of 10 mice with some responses close to 100%, all of them being at least Partial Response (PR) (Figure 6D). In order to clarify the mechanism by which MTP-PlexA1 is exerting tumor growth inhibition we collected tumors and analyzed them histologically.
(B) Representative photographs illustrating the kinetic of tumor growth over 20 days in the two experimental groups. (C) Cumulated growth curves of the tumors (UA: Arbitrary Unit). (D) Waterfall plot of best response representing the percent change in tumor volume of individual treated animals (grey bars, n = 10) compared to the average tumor volume increased determined in the control group (dark bars, n = 10). (E) Proximity ligation assay on tumor slices showing that MTP-PlexA1 (10^−7 M) decreases the number of PlexA1-NRP1 interactions in U118MG cells. (F) Representative microphotographs and related quantification of PH3 positive cells in tumor slices (G) Representative microphotographs and related quantification of CD31 positive regions in tumor slices (% CD31 per μm² of tumors).
Experiments were performed according to the Guide for Care and Use of Laboratory Animals (E67-6-482-21) and the European Directive with approval of the regional ethical committee (Reference AL/55/62/02/13). Heterotopic grafts were produced by injecting […] in the flank of pathogen-free NMRI nude mice (Janvier, Le Genest Saint Isle, France). Intraperitoneal administration of vehicle (LDS 72 μM) or MTP-PlexA1 treatment (10–7 M) were done every days during 20 days when the tumors reached a minimal volume of 100 mm3. For the experiment conducted with cancer stem cell line NCH644mCherry, we performed bilateral grafting of 10^6 cells on each flank of 20 nude mice without treatment or pre-incubated for 1 hour with MTP-PlexA1 at 10–7 M. After 5 days, the fluorescence emission of developing tumors was recorded using the NightOwl system (Berthold) using appropriate excitation and emission filters (580 nm/620 nm respectively).
In general terms: In xenograft studies the graft and the host belong to different species.

In assay [2] the test system is U373MG tumors in nude mice. In words: heterotopic U373MG xenograft in nude mice. The assay is classed as in vivo, human cells in mouse. On the procedure:
Supplementary Figure S6: The anti-tumor effect of MTP-PlxA1 was verified in U373MG human GBM line. […]
(Stable Disease) and 62.5% PR (Partial Response).

Where [3] appears, read: subcutaneous U118MG-Luc, every day, 1 μg/kg, n = 10.
The mark [4] stands for this setting: U373MG, waterfall best response, RECIST criteria.

Regarding “TLPAIVGIGGGGGLLLLVIVAVLIAYKRK [MTP-PlexA1, synthetic transmembrane peptide mimicking the TMD of PlexA1]”, the “VEGFA-induced HMEC cell migration” value in the assay on HMEC cells is given as “abolished”. For the same sequence, in assay [1] (setting [3]), the “mice not responding to treatment (waterfall best response)” value is reported as 2 out of 10 and the “mice with strong response, at least Partial Response (PR)” value is listed as 8 out of 10. In addition, the “reduction of averaged luminescent signal at the end point” value in assay [1] (subcutaneous U118MG-Luc, i.p. every day, 1 μg/kg, 20 days) was found to be 75%. The “best response, some animals” value in assay [1] (waterfall graph, percent change in tumor volume, individual animals) is recorded as around 100%. Moreover, the “change of endpoint tumor weight” value in assay [2] (U373MG flank graft, daily i.p., 10–7 M, p = 0.0044) is −44%. In assay [2] (setting [4]), the “mice responding to the treatment” value came to 100%, the “mice with PR (Partial Response)” value is listed as 62.5% and the “mice with SD (Stable Disease)” value stood at 37.5%.
